In patent US12077503B2, “Substituted cyclic amides and their use as herbicides” (FMC CORPORATION, priority 2015, dated 2024):

Tests used:
Test in all cases: Test G Pre-Emergence Protocol
Type in all cases: in vivo
[1] = test system: redroot pigweed (Amaranthus retroflexus); settings: Amaranthus retroflexus, pre-emergence, 312 h, evaluated after 13 days; for pest or weed control at 15.625 g/ha: 15.625 g ai/ha; for pest or weed control at 15.625 g/ha / pest or weed control at 250 g/ha: read-out: Pigweed, Redroot damage rating (100=total damage to plant; 0=no damage to plant); for pest or weed control at 62.5 g/ha: 62.5 g ai/ha, 100=total damage to plant, 0=no damage to plant, read-out: plant damage rating, Pigweed, Redroot; for pest or weed control at 250 g/ha: 250 g ai/ha
Method in brief: (§1)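 Seeds were sown in standard soil and kept one day in a glasshouse (24/16° C day/night, 14 h light, 65% humidity), then sprayed with compound in acetone/water (50:50) containing 0.5% Tween 20 at 15.625, 62.5 or 250 g/ha. Damage was scored after 13 days (0 = none, 100 = total).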

[2] = test system: velvetleaf (Abutilon theophrasti); settings: Abutilon theophrasti, pre-emergence, 312 h, evaluated after 13 days; for pest or weed control at 15.625 g/ha: 15.625 g ai/ha; for pest or weed control at 15.625 g/ha / pest or weed control at 250 g/ha: read-out: Velvetleaf damage rating (100=total damage to plant; 0=no damage to plant); for pest or weed control at 62.5 g/ha: 62.5 g ai/ha, 100=total damage to plant, 0=no damage to plant, read-out: plant damage rating, Velvetleaf; for pest or weed control at 250 g/ha: 250 g ai/ha
Method in brief: as §1

corn (Zea mays) = settings: Zea mays, pre-emergence, 312 h, evaluated after 13 days; for plant injury at 15.625 g/ha: 15.625 g ai/ha; for plant injury at 15.625 g/ha / plant injury at 250 g/ha: read-out: Corn damage rating (100=total damage to plant; 0=no damage to plant); for plant injury at 62.5 g/ha: 62.5 g ai/ha, 100=total damage to plant, 0=no damage to plant, read-out: plant damage rating, Corn; for plant injury at 250 g/ha: 250 g ai/ha
Method in brief: as §1

[3] = test system: barnyardgrass (Echinochloa crus-galli); settings: Echinochloa crus-galli, pre-emergence, 312 h, evaluated after 13 days; for pest or weed control at 15.625 g/ha: 15.625 g ai/ha, read-out: Barnyard grass damage rating (100=total damage to plant; 0=no damage to plant); for pest or weed control at 62.5 g/ha: 62.5 g ai/ha, 100=total damage to plant, 0=no damage to plant, read-out: plant damage rating, Barnyardgrass; for pest or weed control at 250 g/ha: 250 g ai/ha, read-out: Barnyardgrass damage rating (100=total damage to plant; 0=no damage to plant)
Method in brief: as §1

[4] = test system: giant foxtail (Setaria faberi); settings: Setaria faberi, pre-emergence, 312 h, evaluated after 13 days; for pest or weed control at 15.625 g/ha: 15.625 g ai/ha; for pest or weed control at 15.625 g/ha / pest or weed control at 250 g/ha: read-out: Foxtail, Giant damage rating (100=total damage to plant; 0=no damage to plant); for pest or weed control at 62.5 g/ha: 62.5 g ai/ha, 100=total damage to plant, 0=no damage to plant, read-out: plant damage rating, Foxtail, Giant; for pest or weed control at 250 g/ha: 250 g ai/ha
Method in brief: as §1

[5] = test system: ivy-leaved morning glory (Ipomoea hederacea); settings: Ipomoea, pre-emergence, 312 h, evaluated after 13 days; for pest or weed control at 15.625 g/ha: 15.625 g ai/ha, read-out: Morning-glory, Ivy-leaved damage rating (100=total damage to plant; 0=no damage to plant); for pest or weed control at 62.5 g/ha: 62.5 g ai/ha, 100=total damage to plant, 0=no damage to plant, read-out: plant damage rating, Morningglory, Ivy-leaved; for pest or weed control at 250 g/ha: 250 g ai/ha, read-out: Morningglory, Ivy-leaved damage rating (100=total damage to plant; 0=no damage to plant)
Method in brief: as §1

| SMILES | pest or weed control at 15.625 g/ha [1] | pest or weed control at 62.5 g/ha [1] | pest or weed control at 250 g/ha [1] | pest or weed control at 15.625 g/ha [2] | pest or weed control at 62.5 g/ha [2] | pest or weed control at 250 g/ha [2] | plant injury at 15.625 g/ha (corn (Zea mays)) | plant injury at 62.5 g/ha (corn (Zea mays)) | plant injury at 250 g/ha (corn (Zea mays)) | pest or weed control at 15.625 g/ha [3] | pest or weed control at 62.5 g/ha [3] | pest or weed control at 250 g/ha [3] | pest or weed control at 15.625 g/ha [4] | pest or weed control at 62.5 g/ha [4] | pest or weed control at 250 g/ha [4] | pest or weed control at 15.625 g/ha [5] | pest or weed control at 62.5 g/ha [5] | pest or weed control at 250 g/ha [5] |
| --- | --- | --- | --- | --- | --- | --- | --- | --- | --- | --- | --- | --- | --- | --- | --- | --- | --- | --- |
| CN1C[C@@H](c2ccc(C(F)(F)F)cc2)[C@H](C(=O)Nc2nc[nH]n2)C1=O (racemic) [Compound 1534] | 0% | 0% | 0% | 0% | 0% | 0% | 0% | 0% | 0% | 0% | 0% | 0% | 0% | 0% | 0% | 0% | 0% | 0% |
| CN1C[C@H](c2ccc3occc3c2)[C@@H](C(=O)Nc2cccc(F)c2F)C1=O (racemic) [Compound 1500] | 0% | 0% | 80% | 0% | 0% | 20% | 0% | 0% | 30% | 30% | 90% | 90% | 60% | 80% | 80% | 0% | – | 20% |
| CN1C[C@@H](c2ccc(C(F)(F)F)cc2)[C@H](C(=O)Nc2ccc(C(F)(F)F)nc2Cl)C1=O (racemic) [Compound 1542] | 0% | 0% | 0% | 0% | 0% | 0% | 0% | 0% | 0% | 0% | 10% | 10% | 0% | 10% | 10% | – | 0% | 0% |
| Cc1c(NC(=O)[C@@H]2C(=O)N(C)C[C@H]2c2ccc(C(F)(F)F)cc2)ccc(F)c1F (racemic) [Compound 1502] | 0% | 20% | 70% | 0% | 0% | 10% | 0% | 0% | 50% | 20% | 60% | 80% | 60% | 90% | 90% | 0% | 0% | 0% |
| CN1C[C@@H](c2ccc(C(F)(F)F)cc2)[C@H](C(=O)Nc2cc[nH]n2)C1=O (racemic) [Compound 1533] | 0% | 0% | 0% | 0% | 0% | 0% | 0% | 0% | 0% | 0% | 0% | 0% | – | 0% | 0% | 0% | 0% | 0% |
| CN1C[C@@H](c2ccc(C(F)(F)F)cc2)[C@H](C(=O)Nc2cc(C(F)(F)F)nn2C)C1=O (racemic) [Compound 1510] | – | 0% | 0% | 0% | 0% | 0% | 0% | 0% | 0% | 0% | 0% | 0% | 0% | 0% | 0% | 0% | 0% | 0% |
| CN1C[C@H](c2ccc3c(c2)CCO3)[C@@H](C(=O)Nc2cccc(F)c2F)C1=O (racemic) [Compound 1499] | – | 0% | 0% | 0% | 0% | 30% | 0% | 0% | 80% | 0% | 80% | 90% | 0% | 80% | 80% | 0% | 0% | 100% |
| Cc1ccncc1NC(=O)[C@@H]1C(=O)N(C)C[C@H]1c1ccc(C(F)(F)F)cc1 (racemic) [Compound 1505] | 0% | 0% | 0% | 0% | 0% | 0% | 0% | 0% | 0% | 0% | 0% | 20% | 0% | 10% | 30% | 0% | – | 0% |
| CN1C[C@@H](c2ccc(C(F)(F)F)cc2)[C@H](C(=O)Nc2cnccc2Cl)C1=O (racemic) [Compound 1541] | 0% | 0% | 40% | 0% | 0% | 0% | 0% | 0% | 10% | 0% | 0% | 30% | 0% | 0% | 70% | 0% | 0% | 0% |
